The subject of the experiment is dorsal air pouch of mice. As to the kind of experiment: In vivo air pouch model. The settings on record: 1 μg/mice into air pouch, 24 h. The protocol:
FIG. 3: Mice were treated with IL-17 vehicle (Ctrl), IL-17 (1 μg/mice) alone (IL-17) or peptide (FM-0410) (1 μg/mice) and thereafter total cell number from pouches inflammatory exudates was evaluated at 24 h. Data were expressed as millions of cells for pouch and presented as means±S.D. of n=7 mice per group. Statistical analysis was conducted by one-way ANOVA followed by Bonferroni's for multiple comparisons. ^##P≤0.01, ^###P≤0.005 vs Ctrl group; *P≤0.05 vs IL-17 group.
FIG. 4: Inflammatory supernatants obtained from the pouch cavities were assayed using a Proteome Profiler Cytokine Array for Ctrl, IL-17 and FM-0410 experimental group. Densitometric analysis is presented as heatmap. Data (expressed as INT/mm2) are presented as means±S.D. of positive spots of three independent experiments run each with n=7 mice per group.
FIG. 5: Mice were treated with IL-17 vehicle (Ctrl), IL-17 (1 μg/mice), or peptide (FM-0410) (1 μg/mice) and inflammatory fluids were assayed by Elisa for IL-6. Data were expressed as pg/ml and presented as means±S.D. of n=7 mice per group. Statistical analysis was conducted by one-way ANOVA followed by Bonferroni's for multiple comparisons. ^##P≤0.01 vs CTRL group. […]
Specifically, dorsal air pouches were prepared by injection of 2.5 ml of air on day 0 and day 3 as previously described (Maione et al., 2009). […] Inflammatory exudates were collected and measured to evaluate the level of inflammatory cyto-chemokines. Cell number was determined by TC20 automated cell counter (Bio-Rad, Milan, Italy) using Bio-Rad's TC20 automated cell counter uses disposable slides, TC20 trypan blue dye (0.4% trypan blue dye w/v in 0.81% sodium chloride and 0.06% potassium phosphate dibasic solution) and a CCD camera to count cells based on the analyses of capture images (Maione et al., 2018).
Methods: The levels of IL-6 in the cellular and air pouch inflammatory supernatants at 24 h were measured using commercially available enzyme-linked immunosorbent assay kit (ELISA kit, R&D System, Milan, Italy) according to the manufacturer instructions. […]

No end group written: not given here.

Consider Ac-LEKILVSVGATAVTPIVHHVAC [FM-0410], for which the “cyto-chemokines profile of pouch fluid (Proteome Profiler Cytokine Array)” value was “selective upregulation in a range of mediators”, the “level of IL-6 in pouch fluids” value is “increased level of IL-6 compared to control group” and the “number of inflammatory leukocytes (total cell number from pouch exudates)” value is listed as “marked increase in inflammatory infiltrates compared to control but also to IL-17-treated mice”.

For the origin of these results see US20260035452A1 (THE UNIVERSITY OF BIRMINGHAM, priority 2022, published 2026).
